Assay results from patent US20250034116A1, “1,4-DIHETEROCYCLIC SUBSTITUTED AROMATIC RING OR AROMATIC HETEROCYCLIC COMPOUND AND USE THEREOF” (BeBetter Med Inc., priority 2022, published 2025).

Legend:
[1] = tested on: CYP enzymes in human liver microsomes (HLM); assay: Inhibition of 20-HETE production in human liver microsomes (HLM); format: biochemical
Procedure, shortened: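 Liver microsomes (human or mouse) or recombinant CYP4F2 or CYP4A11 in potassium phosphate buffer mixed with compound, then with 400 μM substrate solution (stock). After 10 min preincubation at 37 °C, reaction started with 6 mM NADPH solution (stock) and run 25 min at 37 °C. 20-HETE formation quantified by LC-MS/MS; IC50 from a four-parameter Hill fit, with percent inhibition also reported at 1000, 500 or 100 nM.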

[2] = tested on: CYP enzymes in rat liver microsomes (RLM); assay: Inhibition of 20-HETE production in rat liver microsomes (RLM); format: biochemical
Procedure, shortened: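 Test compounds were dissolved in DMSO, diluted in acetonitrile/DMSO (3:1), and 2 μl was mixed with 100 μl potassium phosphate buffer containing rat liver microsomes in a 96-well plate. Duplicate 30 μl aliquots received 15 μl of 400 μM substrate, were preheated at 37° C. for 10 minutes, then started with 15 μl of 6 mM NADPH for 25 minutes. LC-MS/MS measured 20-HETE formation.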

[3] = tested on: CYP enzymes in mouse liver microsomes (MLM); assay: Inhibition of 20-HETE production in mouse liver microsomes (MLM); format: biochemical
Protocol: (§1) Experimental principle: The inhibitory activity of 20-HETE production is evaluated by testing the inhibitory effects of the compound on human liver microsomes (HLM), rat liver microsomes (RLM), mouse liver microsomes (MLM), or […] CYP4 subtype enzymes (CYP4F2). This assay employs HLM, RLM, or MLM along with recombinant CYP4F2 (rCYP4F2) and recombinant CYP4A11 (rCYP4A11), which are […] CYP4 subtype enzymes, to detect the effects of the test compound at different concentrations on the metabolic rate of enzyme-specific substrates, to determine the inhibitory effects of the test compound on CYP enzymes in HLM, RLM, or MLM.
(§2) Experimental methods: Dissolve the test compound in DMSO, and subsequently dilute it with an acetonitrile and DMSO mixture (3:1). Add 2 μl of varying concentrations of the test compound and 100 μl of potassium phosphate buffer containing either liver microsomes or recombinant enzymes to a 96-well plate. After mixing well, transfer 30 μl to another well (in duplicate), add 15 μl of 400 μM substrate solution, and mix well again. Preheat at 37° C. for 10 minutes, and then add 15 μl of 6 mM NADPH and incubate at 37° C. for 25 minutes. After 25 minutes, add 160 μl of acetonitrile solution (containing 0.1 μg/ml internal standard) to stop the reaction. Mix well, centrifuge at 3500 g for 15 minutes, and then analyze the supernatant using LC-MS/MS.
(§3) Plot the compound concentration on the x-axis and the inhibition rate on the y-axis to draw the curve. Use GraphPad Prism 5 software to fit the curve and calculate the IC50. The formula is Y=Bottom+(Top−Bottom)/(1+10^((Log IC50−X)×HillSlope)). X represents the logarithmic concentration of the inhibitor, and Y represents the relative enzyme activity at a given inhibitor concentration (relative to the condition without the inhibitor).
(§4) Calculate the inhibition percentages at concentrations of 1000 nM, 500 nM, or 100 nM as well as the half-maximal inhibitory concentration (IC50) of the test compound from the above experiment.

[4] = Pharmacokinetic (PK) experiment, oral administration in rats; format: in vivo, Male SD rats; conditions: 20 mg/kg; for AUC(0-inf) / Cmax / Tmax / half-life / AUC(0-t): male, SD, rat, plasma; for AUC(0-t): read-out: AUC0-24
Protocol: Male SD rats, weighing 180-250 grams, were fasted overnight before testing. The test compound was dissolved in 30% sulfobutylether-β-cyclodextrin and administered orally at a dose of 20 mg/kg. Blood was collected from the tail vein at 15 minutes, 30 minutes, and 1, 2, 4, 6, 8, and 24 hours after administration. Approximately 0.3 ml of blood was collected at each time point, placed in a centrifuge tube containing K2-EDTA, and centrifuged (2000 g for 10 minutes at 4° C.) to take the plasma, which was then stored in an ultra-low temperature freezer at −70° C. or below. A 50 μL plasma sample was mixed with 135 μL of acetonitrile (containing 0.5 μg/mL internal standard) and vortexed for protein precipitation. After centrifugation, the supernatant was taken for LC-MS/MS analysis.

[5] = molecular target: recombinant CYP4F2 (rCYP4F2) (Homo sapiens (Human), UniProt P78329); assay: Inhibition of 20-HETE production by recombinant CYP4F2; format: biochemical; conditions: for inhibition at 0.1 µM: read-out: rCYP4F2 (% inh @ 100 nM)
Protocol: as §1, §2, §3, §4

[6] = molecular target: recombinant CYP4A11 (rCYP4A11) (Homo sapiens (Human), UniProt Q02928); assay: Inhibition of 20-HETE production by recombinant CYP4A11; format: biochemical; conditions: for inhibition at 0.1 µM: read-out: rCYP4A11 (% inh @ 100 nM)
Protocol: as §1, §2, §3, §4

Chain of recombinant CYP4F2 (rCYP4F2) (P78329 5-520): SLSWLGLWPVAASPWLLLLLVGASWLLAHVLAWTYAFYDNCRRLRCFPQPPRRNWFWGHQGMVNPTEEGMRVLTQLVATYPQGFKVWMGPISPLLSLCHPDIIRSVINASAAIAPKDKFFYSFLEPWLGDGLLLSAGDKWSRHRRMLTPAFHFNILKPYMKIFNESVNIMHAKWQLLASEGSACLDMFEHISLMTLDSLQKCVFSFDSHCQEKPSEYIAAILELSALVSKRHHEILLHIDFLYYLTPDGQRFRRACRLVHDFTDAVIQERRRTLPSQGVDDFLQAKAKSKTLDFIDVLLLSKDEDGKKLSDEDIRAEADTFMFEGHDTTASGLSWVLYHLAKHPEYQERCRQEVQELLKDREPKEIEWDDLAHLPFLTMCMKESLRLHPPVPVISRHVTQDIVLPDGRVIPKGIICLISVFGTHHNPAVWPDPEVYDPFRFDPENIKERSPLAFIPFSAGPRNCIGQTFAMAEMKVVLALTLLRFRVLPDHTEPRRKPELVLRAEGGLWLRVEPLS
Chain of recombinant CYP4A11 (rCYP4A11) (Q02928 5-519): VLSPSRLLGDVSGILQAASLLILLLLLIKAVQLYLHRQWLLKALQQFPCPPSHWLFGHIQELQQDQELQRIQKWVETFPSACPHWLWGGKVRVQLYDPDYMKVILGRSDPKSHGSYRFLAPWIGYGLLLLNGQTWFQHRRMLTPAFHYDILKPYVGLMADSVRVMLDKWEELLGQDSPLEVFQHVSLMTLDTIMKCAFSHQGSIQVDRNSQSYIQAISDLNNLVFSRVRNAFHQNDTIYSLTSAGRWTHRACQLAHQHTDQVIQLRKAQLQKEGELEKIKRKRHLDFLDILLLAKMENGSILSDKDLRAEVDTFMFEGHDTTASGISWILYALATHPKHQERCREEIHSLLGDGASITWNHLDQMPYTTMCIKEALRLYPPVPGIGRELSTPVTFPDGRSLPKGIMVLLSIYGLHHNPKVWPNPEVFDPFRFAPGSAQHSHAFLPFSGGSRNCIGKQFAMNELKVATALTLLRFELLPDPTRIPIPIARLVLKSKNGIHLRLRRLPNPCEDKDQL

| SMILES | IC50 [1] [nM] | HLM (% inh @ 500 nM) [1] [%] | IC50 [2] [nM] | RLM (% inh @ 500 nM) [2] [%] | IC50 [3] [nM] | AUC(0-inf) [4] [µg·h/mL] | Cmax [4] [ng/mL] | Tmax [4] [h] | half-life [4] [h] | AUC(0-t) [4] [µg·h/mL] | inhibition at 0.1 µM [5] [%] | inhibition at 0.1 µM [6] [%] | IC50 [5] [nM] | IC50 [6] [nM] | absorption and blood exposure after oral administration (in words) [4] |
| --- | --- | --- | --- | --- | --- | --- | --- | --- | --- | --- | --- | --- | --- | --- | --- |
| O=S1(=O)CCCCN1CC1CCN(c2ccc(-c3cn[nH]c3)cc2F)CC1 [Compound 163, 2-((1-(2-fluoro-4-(1H-pyrazol-4-yl)phenyl)piperidin-4-yl)methyl)-1,2-thiazinane 1,1-dioxide] | 9.53 | 90.91 | 222 | 64.17 | 1010 | 44.7 | 6680 | 1.67 | 4.03 | 44.1 | – | – | – | – | well absorbed and exhibit high blood exposure |
| O=C(N1CC=C(c2ccc(-c3cn[nH]c3)c(F)c2F)CC1)N1CCCC1 [Compound 91, (4-(2,3-difluoro-4-(1H-pyrazol-4-yl)phenyl)-3,6-dihydropyridin-1(2H)-yl)(pyrrolidin-1-yl) methanone] | 19.1 | 96.45 | 9.09 | – | 735 | 107 | 11400 | 2.5 | 2.22 | 107 | – | – | – | – | well absorbed and exhibit high blood exposure |
| O=C1CCCN1CC1CCN(c2ccc(-c3cn[nH]c3)cc2Cl)CC1 [Compound 11, 1-((1-(2-chloro-4-(1H-pyrazol-4-yl)phenyl)piperidin-4-yl)methyl)pyrrolidin-2-one] | – | 80.98 | 157 | – | – | – | – | – | – | – | 59.7 | 46.3 | – | – | – |
| O=C1CCCN1CC1CCN(c2c(F)cc(-c3cn[nH]c3)cc2F)CC1 [Compound 5, 1-((1-(2,6-difluoro-4-(1H-pyrazol-4-yl)phenyl)piperidin-4-yl)methyl)pyrrolidin-2-one] | 28.1 | 81.03 | 44.2 | 66.71 | 946 | 124 | 9270 | 2.67 | 8.11 | 103 | 71.1 | – | 24.9 | 39.6 | well absorbed and exhibit high blood exposure |
| O=C1CCCN1CC1CCN(c2ccc(-c3cn[nH]c3)cc2C(F)F)CC1 [Compound 19, 1-((1-(2-(difluoromethyl)-4-(1H-pyrazol-4-yl)phenyl)piperidin-4-yl)methyl)pyrrolidin-2-one] | – | 87.01 | 434 | 59.42 | – | – | – | – | – | – | 61.4 | 58.7 | – | – | – |
| O=C1CCCN1CC1CCN(c2ccc(-c3cn[nH]c3)c(F)c2)CC1 [Compound 3, 1-((1-(3-fluoro-4-(1H-pyrazol-4-yl)phenyl)piperidin-4-yl)methyl)pyrrolidin-2-one] | – | 75.59 | 322 | – | – | – | – | – | – | – | 64.2 | 27.8 | – | – | – |
| O=C1CCCCN1CC1CCN(c2c(F)cc(-c3cn[nH]c3)cc2F)CC1 [Compound 27, 1-((1-(2,6-difluoro-4-(1H-pyrazol-4-yl)phenyl)piperidin-4-yl)methyl)piperidin-2-one] | 26 | 88.87 | 23.3 | – | 1150 | – | – | – | – | – | 78.4 | 52.3 | – | – | – |
| O=C1CCCN1CC1CCN(c2ccc(-c3ccno3)cc2)CC1 [Compound 34, 1-((1-(4-(isoxazol-5-yl)phenyl)piperidin-4-yl)methyl)pyrrolidin-2-one] | – | 71.06 | – | 83.75 | – | – | – | – | – | – | 49.7 | 1.59 | – | – | – |

Second part, led by results:

| IC50 [1] [nM] | HLM (% inh @ 500 nM) [1] [%] | IC50 [2] [nM] | RLM (% inh @ 500 nM) [2] [%] | IC50 [3] [nM] | AUC(0-inf) [4] [µg·h/mL] | Cmax [4] [ng/mL] | Tmax [4] [h] | half-life [4] [h] | AUC(0-t) [4] [µg·h/mL] | inhibition at 0.1 µM [5] [%] | inhibition at 0.1 µM [6] [%] | IC50 [5] [nM] | IC50 [6] [nM] | SMILES | absorption and blood exposure after oral administration (in words) [4] |
| --- | --- | --- | --- | --- | --- | --- | --- | --- | --- | --- | --- | --- | --- | --- | --- |
| 42.7 | – | – | 35.64 | – | – | – | – | – | – | 66 | 41.1 | – | – | O=C(NCC1CCN(c2ccc(-c3cn[nH]c3)cc2)CC1)c1ccccc1 [Compound 47, N-((1-(4-(1H-pyrazol-4-yl)phenyl)piperidin-4-yl)methyl)benzamide] | – |
| 19.6 | 85.05 | – | 50.28 | – | – | – | – | – | – | 79.2 | 25.8 | – | – | O=C(Nc1ccc2occc2c1)C1CCN(c2ccc(-c3cn[nH]c3)cc2)CC1 [Compound 62, 1-(4-(1H-pyrazol-4-yl)phenyl)-N-(benzofuran-5-yl)piperidine-4-carboxamide] | – |
| – | 81.76 | – | 49.97 | – | – | – | – | – | – | 61.7 | 8.98 | – | – | O=C(NC1CCCCC1)C1CCN(c2ccc(-c3cn[nH]c3)cc2)CC1 [Compound 57, 1-(4-(1H-pyrazol-4-yl)phenyl)-N-cyclohexylpiperidine-4-carboxamide] | – |
| – | 72.44 | – | 47.19 | – | – | – | – | – | – | 52.8 | 17.5 | – | – | O=C1CCCN1CC1CCN(c2ccc(-c3cn[nH]c3)cc2)C1 (stereo not drawn) [Compound 74, 1-((1-(4-(1H-pyrazol-4-yl)phenyl)pyrrolidin-3-yl)methyl)pyrrolidin-2-one] | – |
| – | 69.53 | – | 64.35 | – | 486 | 26800 | 3.33 | 12.5 | 364 | 70.5 | 9.25 | – | – | O=C(C1CCN(c2ccc(-c3cn[nH]c3)cc2)CC1)N1Cc2ccccc2C1 [Compound 66, (1-(4-(1H-pyrazol-4-yl)phenyl)piperidin-4-yl)(isoindolin-2-yl) methanone] | well absorbed and exhibit high blood exposure |
| 20 | 81.86 | 86.4 | – | – | – | – | – | – | – | 73.8 | 40.6 | – | – | O=C(Nc1ccc2ccccc2c1)C1CCN(c2ccc(-c3cn[nH]c3)cc2)CC1 [Compound 64, 1-(4-(1H-pyrazol-4-yl)phenyl)-N-(naphthalen-2-yl)piperidine-4-carboxamide] | – |
| – | 79.80 | 521 | 44.31 | – | – | – | – | – | – | 42.4 | 23.3 | – | – | O=C(C1CCN(c2ccc(-c3cn[nH]c3)cc2)CC1)N1CCCC1 [Compound 49, (1-(4-(1H-pyrazol-4-yl)phenyl)piperidin-4-yl)(pyrrolidin-1-yl) methanone] | – |
| 29.3 | 80.65 | 159 | 61.49 | 766 | – | – | – | – | – | 56 | 30.6 | – | – | O=C1CCCCN1CC1CCN(c2ccc(-c3cn[nH]c3)cc2)CC1 [Compound 25, 1-((1-(4-(1H-pyrazol-4-yl)phenyl)piperidin-4-yl)methyl)piperidin-2-one] | – |
